Measured values as given in PubChem BioAssay (NCI).
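Where inhibition never reached the appropriate level, the endpoint shown equals the highest concentration tested. Otherwise, values were interpolated linearly from a five-concentration, 48-hour dose response in 96-well plates. GI50: concentration for 50% inhibition of growth. TGI: total growth inhibition.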

Experiments:
Assay in all cases: NCI tumour cell line growth inhibition, 48 h
MOLT-4 leukemia = test system: MOLT-4 leukemia
PC-3 prostate = test system: PC-3 prostate
HL-60(TB) leukemia = test system: HL-60(TB) leukemia
NCI-H522 lung = test system: NCI-H522 lung
UACC-257 melanoma = test system: UACC-257 melanoma
RXF 393 renal = test system: RXF 393 renal
MALME-3M melanoma = test system: MALME-3M melanoma
COLO 205 colon = test system: COLO 205 colon
HCT-116 colon = test system: HCT-116 colon
ACHN renal = test system: ACHN renal
HT29 colon = test system: HT29 colon
NCI-H23 lung = test system: NCI-H23 lung
NCI-H460 lung = test system: NCI-H460 lung
SK-OV-3 ovarian = test system: SK-OV-3 ovarian
HOP-62 NSCLC = test system: HOP-62 NSCLC
M14 melanoma = test system: M14 melanoma
U251 CNS = test system: U251 CNS
UO-31 renal = test system: UO-31 renal
SK-MEL-2 melanoma = test system: SK-MEL-2 melanoma
SF-539 CNS = test system: SF-539 CNS
SNB-75 CNS = test system: SNB-75 CNS
SK-MEL-5 melanoma = test system: SK-MEL-5 melanoma
CCRF-CEM leukemia = test system: CCRF-CEM leukemia
KM12 colon = test system: KM12 colon
SN12C renal = test system: SN12C renal
UACC-62 melanoma = test system: UACC-62 melanoma
SK-MEL-28 melanoma = test system: SK-MEL-28 melanoma
CAKI-1 renal = test system: CAKI-1 renal
NCI-H226 lung = test system: NCI-H226 lung
OVCAR-4 ovarian = test system: OVCAR-4 ovarian
HCT-15 colon = test system: HCT-15 colon
EKVX NSCLC = test system: EKVX NSCLC
MCF7 breast = test system: MCF7 breast
SR leukemia = test system: SR leukemia
HCC-2998 colon = test system: HCC-2998 colon
BT-549 breast = test system: BT-549 breast
NCI/ADR-RES ovarian = test system: NCI/ADR-RES ovarian
IGROV1 ovarian = test system: IGROV1 ovarian
TK-10 renal = test system: TK-10 renal
SF-268 CNS = test system: SF-268 CNS
HS 578T breast = test system: HS 578T breast
OVCAR-5 ovarian = test system: OVCAR-5 ovarian
786-0 renal = test system: 786-0 renal
SW-620 colon = test system: SW-620 colon
MDA-MB-435 = test system: MDA-MB-435
OVCAR-8 ovarian = test system: OVCAR-8 ovarian
K-562 leukemia = test system: K-562 leukemia
RPMI-8226 leukemia = test system: RPMI-8226 leukemia
MDA-MB-231 breast = test system: MDA-MB-231 breast
SNB-19 CNS = test system: SNB-19 CNS
DU-145 prostate = test system: DU-145 prostate
SF-295 CNS = test system: SF-295 CNS
A549 NSCLC = test system: A549 NSCLC
HOP-92 NSCLC = test system: HOP-92 NSCLC
LOX IMVI melanoma = test system: LOX IMVI melanoma
T-47D breast = test system: T-47D breast
A498 renal = test system: A498 renal

Which GI50 (MOLT-4 leukemia) does the source give for N#Cc1c(NC(=O)c2cccc(C(F)(F)F)c2F)sc2c1CCC(=O)C2 here?
Its GI50 is 308 nM.

What about the TGI (MOLT-4 leukemia) of the same molecule?
Its TGI is > 37700 nM.

What about the GI50 (PC-3 prostate) of the same molecule?
The GI50 was 114 nM.

What about the TGI (PC-3 prostate) of the same molecule?
Its TGI is 1480 nM.

And the GI50 (HL-60(TB) leukemia)?
The GI50 was 235 nM.

And the TGI (HL-60(TB) leukemia)?
Its TGI is 10900 nM.

What about the GI50 (NCI-H522 lung) of the same molecule?
The GI50 was 194 nM.

What about the TGI (NCI-H522 lung) of the same molecule?
Its TGI is 719 nM.

And the GI50 (UACC-257 melanoma)?
The GI50 was 624 nM.

What about the TGI (UACC-257 melanoma) of the same molecule?
Its TGI is 3180 nM.

What about the GI50 (RXF 393 renal) of the same molecule?
The GI50 was 221 nM.

What about the TGI (RXF 393 renal) of the same molecule?
Its TGI is 714 nM.

And the GI50 (MALME-3M melanoma)?
Its GI50 is 266 nM.

What about the TGI (MALME-3M melanoma) of the same molecule?
The TGI was 694 nM.

What about the GI50 (COLO 205 colon) of the same molecule?
Its GI50 is 210 nM.

And the TGI (COLO 205 colon)?
Its TGI is 437 nM.

What about the GI50 (HCT-116 colon) of the same molecule?
The GI50 was 124 nM.

What about the TGI (HCT-116 colon) of the same molecule?
The TGI was 1260 nM.

What about the GI50 (ACHN renal) of the same molecule?
The GI50 was 296 nM.

What about the TGI (ACHN renal) of the same molecule?
The TGI was 1010 nM.

What about the GI50 (HT29 colon) of the same molecule?
Its GI50 is 226 nM.

And the TGI (HT29 colon)?
The TGI was 1310 nM.

And the GI50 (NCI-H23 lung)?
Its GI50 is 337 nM.

And the TGI (NCI-H23 lung)?
Its TGI is 2070 nM.

And the GI50 (NCI-H460 lung)?
Its GI50 is 549 nM.

What about the TGI (NCI-H460 lung) of the same molecule?
Its TGI is > 38900 nM.

And the GI50 (SK-OV-3 ovarian)?
The GI50 was 1960 nM.

What about the TGI (SK-OV-3 ovarian) of the same molecule?
Its TGI is 6370 nM.

And the GI50 (HOP-62 NSCLC)?
Its GI50 is 782 nM.

What about the GI50 (M14 melanoma) of the same molecule?
Its GI50 is 378 nM.

What about the TGI (M14 melanoma) of the same molecule?
The TGI was 2100 nM.

What about the GI50 (U251 CNS) of the same molecule?
Its GI50 is 356 nM.

And the TGI (U251 CNS)?
The TGI was 2240 nM.

And the GI50 (UO-31 renal)?
The GI50 was 220 nM.

And the TGI (UO-31 renal)?
Its TGI is 730 nM.

And the GI50 (SK-MEL-2 melanoma)?
The GI50 was 2150 nM.

And the TGI (SK-MEL-2 melanoma)?
The TGI was 5330 nM.

And the GI50 (SF-539 CNS)?
Its GI50 is 244 nM.

And the TGI (SF-539 CNS)?
The TGI was 800 nM.

What about the GI50 (SNB-75 CNS) of the same molecule?
Its GI50 is 459 nM.

What about the TGI (SNB-75 CNS) of the same molecule?
Its TGI is 3550 nM.

What about the GI50 (SK-MEL-5 melanoma) of the same molecule?
Its GI50 is 372 nM.

And the TGI (SK-MEL-5 melanoma)?
The TGI was 1320 nM.

And the GI50 (CCRF-CEM leukemia)?
Its GI50 is 190 nM.

What about the TGI (CCRF-CEM leukemia) of the same molecule?
The TGI was > 100000 nM.

And the GI50 (KM12 colon)?
Its GI50 is 464 nM.

And the TGI (KM12 colon)?
Its TGI is 1980 nM.

What about the GI50 (SN12C renal) of the same molecule?
Its GI50 is 326 nM.

And the TGI (SN12C renal)?
The TGI was 2220 nM.

What about the GI50 (UACC-62 melanoma) of the same molecule?
Its GI50 is 317 nM.

And the TGI (UACC-62 melanoma)?
Its TGI is 1330 nM.

What about the GI50 (SK-MEL-28 melanoma) of the same molecule?
Its GI50 is 475 nM.

And the TGI (SK-MEL-28 melanoma)?
Its TGI is 1790 nM.

And the GI50 (CAKI-1 renal)?
The GI50 was 221 nM.

What about the TGI (CAKI-1 renal) of the same molecule?
The TGI was 866 nM.

What about the GI50 (NCI-H226 lung) of the same molecule?
The GI50 was 487 nM.

And the TGI (NCI-H226 lung)?
The TGI was 2570 nM.

And the GI50 (OVCAR-4 ovarian)?
Its GI50 is 393 nM.

What about the TGI (OVCAR-4 ovarian) of the same molecule?
The TGI was 1730 nM.

What about the GI50 (HCT-15 colon) of the same molecule?
Its GI50 is 246 nM.

What about the TGI (HCT-15 colon) of the same molecule?
Its TGI is 1140 nM.

And the GI50 (EKVX NSCLC)?
The GI50 was 563 nM.

What about the TGI (EKVX NSCLC) of the same molecule?
The TGI was 4400 nM.

And the GI50 (MCF7 breast)?
The GI50 was 276 nM.

And the TGI (MCF7 breast)?
Its TGI is > 23000 nM.

What about the GI50 (SR leukemia) of the same molecule?
Its GI50 is 76.1 nM.

What about the TGI (SR leukemia) of the same molecule?
Its TGI is > 100000 nM.

What about the GI50 (HCC-2998 colon) of the same molecule?
Its GI50 is 588 nM.

What about the TGI (HCC-2998 colon) of the same molecule?
The TGI was 2090 nM.

What about the GI50 (BT-549 breast) of the same molecule?
Its GI50 is 308 nM.

And the TGI (BT-549 breast)?
Its TGI is 1430 nM.

What about the GI50 (NCI/ADR-RES ovarian) of the same molecule?
Its GI50 is 345 nM.

What about the TGI (NCI/ADR-RES ovarian) of the same molecule?
Its TGI is 1820 nM.

And the GI50 (IGROV1 ovarian)?
Its GI50 is 490 nM.

And the TGI (IGROV1 ovarian)?
Its TGI is 2200 nM.

What about the GI50 (TK-10 renal) of the same molecule?
The GI50 was 330 nM.

And the GI50 (SF-268 CNS)?
The GI50 was 408 nM.

And the TGI (SF-268 CNS)?
Its TGI is > 100000 nM.

What about the GI50 (HS 578T breast) of the same molecule?
Its GI50 is 357 nM.

What about the TGI (HS 578T breast) of the same molecule?
The TGI was 2320 nM.

And the GI50 (OVCAR-5 ovarian)?
Its GI50 is 392 nM.

And the TGI (OVCAR-5 ovarian)?
The TGI was 1780 nM.

And the GI50 (786-0 renal)?
The GI50 was 444 nM.

What about the TGI (786-0 renal) of the same molecule?
Its TGI is > 47500 nM.

What about the GI50 (SW-620 colon) of the same molecule?
The GI50 was 225 nM.

And the TGI (SW-620 colon)?
Its TGI is 1460 nM.

What about the GI50 (MDA-MB-435) of the same molecule?
Its GI50 is 336 nM.

And the TGI (MDA-MB-435)?
Its TGI is 1400 nM.

What about the GI50 (OVCAR-8 ovarian) of the same molecule?
Its GI50 is 356 nM.

What about the TGI (OVCAR-8 ovarian) of the same molecule?
The TGI was > 100000 nM.

And the GI50 (K-562 leukemia)?
Its GI50 is 112 nM.

And the TGI (K-562 leukemia)?
The TGI was > 100000 nM.

What about the GI50 (RPMI-8226 leukemia) of the same molecule?
Its GI50 is 66.4 nM.

What about the GI50 (MDA-MB-231 breast) of the same molecule?
Its GI50 is 356 nM.

And the TGI (MDA-MB-231 breast)?
The TGI was 1350 nM.

And the GI50 (SNB-19 CNS)?
The GI50 was 410 nM.

And the TGI (SNB-19 CNS)?
The TGI was 15600 nM.

And the GI50 (DU-145 prostate)?
Its GI50 is 1270 nM.

What about the TGI (DU-145 prostate) of the same molecule?
The TGI was > 100000 nM.

And the GI50 (SF-295 CNS)?
Its GI50 is 515 nM.

What about the TGI (SF-295 CNS) of the same molecule?
Its TGI is 2420 nM.

What about the GI50 (A549 NSCLC) of the same molecule?
The GI50 was 1880 nM.

And the TGI (A549 NSCLC)?
The TGI was > 100000 nM.

And the GI50 (HOP-92 NSCLC)?
The GI50 was 243 nM.

What about the TGI (HOP-92 NSCLC) of the same molecule?
Its TGI is 679 nM.

And the GI50 (LOX IMVI melanoma)?
Its GI50 is 311 nM.

What about the TGI (LOX IMVI melanoma) of the same molecule?
The TGI was 1180 nM.

And the GI50 (T-47D breast)?
Its GI50 is 151 nM.

And the TGI (T-47D breast)?
Its TGI is 1650 nM.

What about the GI50 (A498 renal) of the same molecule?
The GI50 was 2190 nM.

And the TGI (A498 renal)?
Its TGI is 5930 nM.
